Patent US12077555B2, “STAT degraders and uses thereof” (Kymera Therapeutics, Inc., priority 2019, dated 2024)

These molecules were tested against STAT3 (Homo sapiens, UniProt P40763) (assay: STAT3 HiBiT degradation assay in transfected A549 cells). Conditions: A549, 24 h; read-out: STAT3 HiBiT A549 degradation 24 h: Average external-Abs DC50.
Type: cell-based
Design: expressed in transfected cells; host or cells: A549
Summary of the method: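 Degradation read as HiBiT-tagged STAT3 luminescence (Nano-Glo lytic reagent, 10 min, room temperature) following 24 h compound treatment of transfected A549 cells at 3-fold, 10 points. Percent remaining signal computed against controls and fitted with a four-parameter logistic; DC50 reported as letter bins (A <0.01 to D >1.0 µM).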

Sequence of STAT3 (P40763 whole entry): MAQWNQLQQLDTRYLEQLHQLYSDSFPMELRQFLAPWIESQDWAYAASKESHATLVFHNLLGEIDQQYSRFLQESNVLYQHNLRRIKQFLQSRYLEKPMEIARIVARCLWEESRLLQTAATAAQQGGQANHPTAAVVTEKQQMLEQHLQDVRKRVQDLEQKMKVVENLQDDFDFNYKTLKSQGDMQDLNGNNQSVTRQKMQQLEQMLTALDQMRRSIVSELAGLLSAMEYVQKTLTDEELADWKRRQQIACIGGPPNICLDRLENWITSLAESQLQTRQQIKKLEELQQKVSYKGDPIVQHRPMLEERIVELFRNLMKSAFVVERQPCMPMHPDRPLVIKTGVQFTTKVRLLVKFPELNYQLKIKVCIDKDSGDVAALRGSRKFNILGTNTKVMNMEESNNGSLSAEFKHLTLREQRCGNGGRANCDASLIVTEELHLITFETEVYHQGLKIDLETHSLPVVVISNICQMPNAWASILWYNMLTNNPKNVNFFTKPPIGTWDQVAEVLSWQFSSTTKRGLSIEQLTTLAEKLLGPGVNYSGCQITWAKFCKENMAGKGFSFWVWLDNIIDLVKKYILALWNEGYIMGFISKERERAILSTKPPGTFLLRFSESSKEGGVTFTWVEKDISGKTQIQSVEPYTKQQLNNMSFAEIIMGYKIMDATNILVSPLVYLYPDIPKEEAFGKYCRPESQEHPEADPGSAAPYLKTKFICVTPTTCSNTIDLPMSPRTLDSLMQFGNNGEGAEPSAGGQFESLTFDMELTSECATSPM

| SMILES | DC50 |
| --- | --- |
| Cn1c(=O)n(C2CCC(=O)NC2=O)c2ccc([C@H]3CC[C@@H](CCCC(=O)N4CC[C@H]5CC[C@@H](C(=O)N[C@@H](CCC(N)=O)C(=O)NC(c6ccccc6)c6ccccc6)N5C(=O)[C@@H](NC(=O)c5cc6cc(C(=O)P(=O)(O)O)ccc6[nH]5)C4)CC3)cc21 (stereo partly drawn) [Compound I-274, 2-[[(5S,8S,10aR)-8-[[(1S)-3-carbamoyl-1-(diphenylmethylcarbamoyl)propyl]carbamoyl]-6-oxo-3-[4-[(1s,4r)-4-[1-(2,6-dioxopiperidin-3-yl)-3-methyl-2-oxo-1,3-benzodiazol-5-yl]cyclohexyl]butanoyl]-octahydropyrrolo[1,2-a][1,5]diazocin-5-yl]carbamoyl]-1H-indole-5-carbonylphosphonic acid] | 0.1 to 1 µM |
| Cn1c(=O)n(C2CCC(=O)NC2=O)c2ccc(CC3CCC(Cc4cc5c6c(c4)C[C@@H](C(=O)N[C@@H](CCC(N)=O)C(=O)NC(c4ccccc4)c4ccccc4)N6C(=O)[C@@H](NC(=O)c4cc6cc(C(=O)P(=O)(O)O)ccc6[nH]4)CC5)CC3)cc21 (stereo partly drawn) [Compound I-245, 2-[[(2S,11S)-2-[[(1S)-3-carbamoyl-1-(diphenylmethylcarbamoyl)propyl]carbamoyl]-6-[(4-[[1-(2,6-dioxopiperidin-3-yl)-3-methyl-2-oxo-1,3-benzodiazol-5-yl]methyl]cyclohexyl)methyl]-12-oxo-1-azatricyclo[6.4.1.0^[4,13]]trideca-4(13),5,7-trien-11-yl]carbamoyl]-1H-indole-5-carbonylphosphonic acid] | 0.1 to 1 µM |
| Cc1ncsc1-c1ccc(CNC(=O)[C@@H]2C[C@@H](O)CN2C(=O)[C@@H](NC(=O)Cc2cccc(-c3ccc(CO[C@H](C)[C@H](CCC(N)=O)NC(=O)[C@@H]4Cc5cccc6c5N4C(=O)[C@@H](NC(=O)c4cc5cc(C(=O)P(=O)(O)O)ccc5[nH]4)CC6)cc3)c2)C(C)(C)C)cc1 [Compound I-145, 2-[[(2S,11S)-2-[[(3S,4R)-1-carbamoyl-4-[[3'-([[(2S)-1-[(2S,4R)-4-hydroxy-2-([[4-(4-methyl-1,3-thiazol-5-yl)phenyl]methyl]carbamoyl)pyrrolidin-1-yl]-3,3-dimethyl-1-oxobutan-2-yl]carbamoyl]methyl)-[1,1'-biphenyl]-4-yl]methoxy]pentan-3-yl]carbamoyl]-12-oxo-1-azatricyclo[6.4.1.0^[4,13]]trideca-4(13),5,7-trien-11-yl]carbamoyl]-1H-indole-5-carbonylphosphonic acid] | > 1 µM |
| Cc1ncsc1-c1ccc([C@H](C)NC(=O)[C@@H]2C[C@@H](O)CN2C(=O)[C@@H](NC(=O)CCCCc2cccc(OC[C@H](CCC(N)=O)NC(=O)[C@@H]3CCCN3C(=O)[C@H](CC(C)C)NC(=O)c3cc4cc(C(=O)P(=O)(O)O)ccc4[nH]3)c2Cl)C(C)(C)C)cc1 [Compound I-239, diammonium 2-[[(2S)-1-[(2S)-2-[[(2S)-4-carbamoyl-1-[2-chloro-3-(4-[[(2S)-1-[(2S,4R)-4-hydroxy-2-[[(1S)-1-[4-(4-methyl-1,3-thiazol-5-yl)phenyl]ethyl]carbamoyl]pyrrolidin-1-yl]-3,3-dimethyl-1-oxobutan-2-yl]carbamoyl]butyl)phenoxy]butan-2-yl]carbamoyl]pyrrolidin-1-yl]-4-methyl-1-oxopentan-2-yl]carbamoyl]-1H-] | < 0.01 µM |
| Cc1ncsc1-c1ccc([C@H](C)NC(=O)[C@@H]2C[C@@H](O)CN2C(=O)[C@@H](NC(=O)CCCCc2ccc(COC[C@H](CCC(N)=O)NC(=O)[C@@H]3Cc4cccc5c4N3C(=O)[C@@H](NC(=O)c3cc4cc(C(=O)P(=O)(O)O)ccc4[nH]3)CC5)cc2)C(C)(C)C)cc1 [Compound I-141, diammonium 2-[[(2S,11S)-2-[[(2S)-4-carbamoyl-1-[[4-(4-[[(2S)-1-[(2S,4R)-4-hydroxy-2-[[(1S)-1-[4-(4-methyl-1,3-thiazol-5-yl)phenyl]ethyl]carbamoyl]pyrrolidin-l-yl]-3,3-dimethyl-1-oxobutan-2-yl]carbamoyl]butyl)phenyl]methoxy]butan-2-yl]carbamoyl]-12-oxo-1-azatricyclo[6.4.1.0^[4,13]]trideca-4(13),5,7-trien-11-yl]carbamoyl]-1H-indole-5-carbonylphosphonate] | 0.01 to 0.1 µM |
| Cc1ncsc1-c1ccc(CNC(=O)[C@@H]2C[C@@H](O)CC2C(=O)[C@@H](NC(=O)CC/C=C/c2ccc(CO[C@H](C)[C@H](CCC(N)=O)NC(=O)[C@@H]3Cc4cccc5c4N3C(=O)[C@@H](NC(=O)c3cc4cc(C(=O)P(=O)(O)O)ccc4[nH]3)CC5)cc2)C(C)(C)C)cc1 (stereo partly drawn) [Compound I-130, diammonium 2-[[(2S,11S)-2-[[(3S,4R)-1-carbamoyl-4-([4-[(1E)-4-[[(2S)-1-[(2S,4R)-4-hydroxy-2-([[4-(4-methyl-1,3-thiazol-5-yl)phenyl]methyl]carbamoyl)pyrrolidin-1-yl]-3,3-dimethyl-1-oxobutan-2-yl]carbamoyl]but-1-en-1-yl]phenyl]methoxy)pentan-3-yl]carbamoyl]-12-oxo-1-azatricyclo[6.4.1.0^[4,13]]trideca-4(13),5,7-trien-11-yl]carbamoyl]-1H-indole-5-carbonylphosphonate] | > 1 µM |
| Cc1ccc(OC[C@H](CCC(N)=O)NC(=O)[C@@H]2Cc3cccc4c3N2C(=O)[C@@H](NC(=O)c2cc3cc(C(=O)P(=O)(O)O)ccc3[nH]2)CC4)c(F)c1CCCCCC(=O)N[C@H](C(=O)N1C[C@H](O)C[C@H]1C(=O)N[C@@H](C)c1ccc(-c2scnc2C)cc1)C(C)(C)C [Compound I-251] | < 0.01 µM |
| Cc1ncsc1-c1ccc(C2(NC(=O)[C@@H]3C[C@@H](O)CN3C(=O)[C@@H](NC(=O)CCCc3cccc(OC[C@H](CCC(N)=O)NC(=O)[C@@H]4Cc5cccc6c5N4C(=O)[C@@H](NC(=O)c4cc5cc(C(=O)P(=O)(O)O)ccc5[nH]4)CC6)c3Cl)C(C)(C)C)CC2)cc1 [Compound I-283] | 0.01 to 0.1 µM |
| Cc1ncsc1-c1ccc([C@H](C)NC(=O)[C@@H]2C[C@@H](O)CN2C(=O)[C@@H](NC(=O)CCCCCc2cc(Cl)cc(OC[C@@H](NC(=O)[C@@H]3Cc4cccc5c4N3C(=O)[C@@H](NC(=O)c3cc4cc(C(=O)P(=O)(O)O)ccc4[nH]3)CC5)C(N)=O)c2)C(C)(C)C)cc1 [Compound I-204, 2-[[(2S,11S)-2-[[(2S)-4-carbamoyl-1-[3-chloro-5-(5-[[(2S)-1-[(2S,4R)-4-hydroxy-2-[[(1S)-1-[4-(4-methyl-1,3-thiazol-5-yl)phenyl]ethyl]carbamoyl]prrolidin-1-yl]-3,3-dimethyl-1-oxobutan-2-yl]carbamoyl]pentyl)phenoxy]butan-2-yl]carbamoyl]-12-oxo-1-azatricyclo[6.4.1.0^[4,13]]trideca-4(13),5,7-trien-11-yl]carbamoyl]-1H-indole-5-carbonylphosphonic acid] | 0.01 to 0.1 µM |
| Cc1ncsc1-c1ccc([C@H](C)NC(=O)[C@@H]2C[C@@H](O)CN2C(=O)[C@@H](NC(=O)CCCCCc2cc(OC[C@@H](NC(=O)[C@@H]3Cc4cccc5c4N3C(=O)[C@@H](NC(=O)c3cc4cc(C(=O)P(=O)(O)O)ccc4[nH]3)CC5)C(N)=O)ccc2Cl)C(C)(C)C)cc1 [Compound I-199, diammonium 2-[[(2S,11S)-2-[[(2S)-4-carbamoyl-1-[4-chloro-3-(5-[[(2S)-1-[(2S,4R)-4-hydroxy-2-[[(1S)-1-[4-(4-methyl-1,3-thiazol-5-yl)phenyl]ethyl]carbamoyl]pyrrolidin-1-yl]-3,3-dimethyl-1-oxobutan-2-yl]carbamoyl]pentyl)phenoxy]butan-2-yl]carbamoyl]-12-oxo-1-azatricyclo[6.4.1.0^[4,13]]trideca-4(13),5,7-trien-11-yl]carbamoyl]-1H-indole-5-carbonylphosphonate] | 0.01 to 0.1 µM |
| Cn1c(=O)n(C2CCC(=O)NC2=O)c2ccc(CCCCCCc3cc4c5c(c3)C[C@@H](C(=O)N[C@@H](CCC(N)=O)c3ccccn3)N5C(=O)[C@@H](NC(=O)c3cc5cc(C(=O)P(=O)(O)O)ccc5[nH]3)CC4)cc21 (stereo partly drawn) [Compound I-277, 2-[[(2S,11S)-2-[[(1S)-3-carbamoyl-1-(pyridin-2-yl)propyl]carbamoyl]-6-[6-[1-(2,6-dioxopiperidin-3-yl)-3-methyl-2-oxo-1,3-benzodiazol-5-yl]hexyl]-12-oxo-1-azatricyclo[6.4.1.0^[4,13]]trideca-4(13),5,7-trien-11-yl]carbamoyl]-1H-indole-5-carbonylphosphonic acid] | 0.01 to 0.1 µM |
| Cn1c(=O)n(C2CCC(=O)NC2=O)c2ccc(CC[C@H]3CC[C@@H](C(=O)N4CC[C@H]5CC[C@@H](C(=O)N[C@@H](CCC(N)=O)C(=O)NC(c6ccccc6)c6ccccc6)N5C(=O)[C@@H](NC(=O)c5cc6cc(C(=O)P(=O)(O)O)ccc6[nH]5)C4)CC3)cc21 (stereo partly shown) [Compound I-202] | 0.01 to 0.1 µM |

Same assay, conditions: read-out: STAT3 HiBiT A549 degradation 24 h: Average external-Abs DC50; A549, 24 h

| SMILES | DC50 |
| --- | --- |
| CN1C(=O)CCC(N2Cc3c(C#CCCCCCC(=O)N4CC[C@H]5CC[C@@H](C(=O)N[C@@H](CCC(N)=O)C(=O)NC(c6ccccc6)c6ccccc6)N5C(=O)[C@@H](NC(=O)c5cc6cc(C(=O)P(=O)(O)O)ccc6[nH]5)C4)cccc3C2=O)C1=O (stereo in doubt) [Compound I-120, diammonium 2-[[(5S,8S,10aR)-8-[[(1S)-3-carbamoyl-1-(diphenylmethylcarbamoyl)propyl]carbamoyl]-3-[8-[2-(1-methyl-2,6-dioxopiperidin-3-yl)-1-oxo-3H-isoindol-4-yl]oct-7-ynoyl]-6-oxo-octahydropyrrolo[1,2-a][1,5]diazocin-5-yl]carbamoyl]-1H-indole-5-carbonylphosphonate] | > 1 µM |
